Results on 15 compounds are retold here after patent US8258138B2, “Potassium channel blockers” (Xention Limited, priority 2008, dated 2012).

For test [1], the target named is T1, human Kv1.3 (Homo sapiens, UniProt P22001).
T1 construct: expressed in transfected cells; host or cells: stably transfected cells grown in medium for CHO cells
Briefly: Kv1.3 Autopatch electrophysiology (whole cell patch-clamp, inhibition of charge movement). Type of test: cell-based. The note with it: compound at 1 μM; cells stably transfected with human Kv1.3; room temperature; total charge during step to +30 mV relative to control; read-out: hKv1.3 % inh. How it is done: Kv1.3 Autopatch Electrophysiology Method
Compounds were tested on these cells using the AutoPatch technology in whole cell mode.
The external bathing solution contained (in mM): 150 NaCl, 10 KCl, 1 MgCl2, 3 CaCl2, 10 HEPES, pH 7.4 with NaOH. Patch pipettes were filled with an electrode solution of composition (in mM): 100 K-Gluconate, 20 KCl, 1 MgCl2, 1 CaCl2, 10 HEPES, 11 EGTA, 5 ATP-Na2, 2 Glutathione pH 7.2 with KOH.
Compounds were dissolved in DMSO (100%) and made up in the external bather at a concentration of 1 μM immediately prior to use. All experiments were conducted at room temperature.
A cell suspension (10 ml), with a density of 6×10^6 cells, was aliquoted into a 15 ml centrifuge tube and stored at 4° C. before use. Prior to use a tube was taken and centrifuged at 1000 rpm for 4 mins at room temperature. The supernatant was then discarded, leaving a cell pellet at the bottom of the tube. The pellet was then resuspended using 1 ml of cold (4° C.), filtered (0.22 μm), 0.05% BSA/bather solution (0.05 g BSA/100 ml bather). The bottom of the tube was manually agitated followed by gentle tituration. The cell suspension was then placed in the AutoPatch™ temperature controlled cell-hotel at 14° C. and regularly titurated.
A length of Teflon capillary tubing was dipped into the cell suspension solution, and a column of fluid was taken up by negative pressure. The column of fluid was in electrically connectivity with a Ag/AgCl reference electrode. Borosilicate glass patch pipettes (from 1.5 mm OD, thin-walled filamented, GC150-TF capillary glass, Harvard) were pulled using a DMZ pipette puller (Zeitz Instruments), and were back-filled using the internal pipette solution, being careful that no bubbles remained at the tip or in the body of the pipette. Patch pipettes typically had resistances of 2.5-3.5 MΩ. Once filled, the pipette tip and a proportion of the shaft (˜15 mm) were dipped into Sigmacote (Sigma). The recording pipettes were placed in a multiwell array and mounted on the AutoPatch™ machine. Automated patch-clamping and drug-application was initiated by the operator, but thereafter AutoPatch.exe continued the experiment providing that pre-set conditions and criteria were satisfied.
Whole cell patch-clamp recordings were made using the AutoPatch™ rig, which incorporated an EPC9 or EPC10 amplifier (HEKA, Germany) under control of Pulse software (v8.54 or v8.76, HEKA, Germany), a cell applicator, automated drug application system (DAS), valve controller (VF1) and a suction device all at room temperature. This equipment was completely under the control of AutoPatch.exe and operator intervention was only made when there was a requirement to refill the bather reservoirs or to prevent the loss of a cell due to a technical error.
Cells were continuously perfused with external solution at a flow rate of ˜2 ml/minute.
Electrophysiology voltage-step protocols and analysis of data was performed as follows. Data were sampled at 5 kHz, and filtered with a −3 dB bandwidth of 2.5 kHz. Cells were held at a voltage of −80 mV. Currents were evoked by a voltage step to +30 mV for 500 ms in duration applied every 15 s. Online analysis of the hKv1.3 current during the application of compounds was performed by the Pulse (v8.54 or v8.76, HEKA, Germany), Excel (Microsoft, USA) and AutoPatch™ software, with the total charge measured during the whole of voltage step. Inhibition of charge movement in the presence of drug was calculated relative to control.
For orientation: In patch-clamp work, channel activity is measured electrically.

Test [2] has as its target hKv1.5 (Homo sapiens, UniProt P22460). Nature of the test: Kv1.5 Autopatch electrophysiology (whole cell patch-clamp). It is filed as cell-based. The conditions noted are these: compound at 1 μM; room temperature (22-24° C.); total charge during step to 0 mV; read-out: hKv1.5 % inh. As for the experimental part:
Kv1.5 Autopatch Electrophysiology Method
The external bathing solution contained (in mM): 150 NaCl, 10 KCl, […], 3 MgCl2, 1 CaCl2, 10 HEPES, pH 7.4. Patch pipettes were filled with an electrode solution of composition (in mM): 160 KCl, 0.5 MgCl2, 10 HEPES, 1 EGTA, pH 7.4 with KOH.
Compounds were dissolved in DMSO (100%) and made up in the external bather at a concentration of 1 μM. All experiments were conducted at room temperature (22-24° C.).
A cell suspension (10 ml), with a density of 100,000 cells/ml, was aliquoted into a 15 ml centrifuge tube and transferred to an incubator (37° C., 5% CO2) for approximately one hour before use. Following 60 min incubation, a tube was taken and centrifuged at 1000 rpm for 4 mins at room temperature. 9.5 ml supernatant was thence discarded, leaving a cell pellet at the bottom of the tube. The pellet was then resuspended using 100 μl of cold (4° C.), filtered (0.22 μm), 0.2% BSA/bather solution (0.02 g BSA/10 ml bather). The bottom of the tube was manually agitated gently until the solution became cloudy with cells. The 100 μl cell resuspension solution was then stored on the bench at 4° C. (using a Peltier-based temperature control device) until used.
A length of capillary glass (1B150F-4, WPI) was dipped into the cell suspension solution, such that ˜3 cm column of fluid was taken up by capillary action. A Ag/AgCl wire was dropped into the non-dipped end of the capillary also. The outside of the solution-filled end of the capillary was then dried and the capillary was loaded into the AutoPatch™.
Borosilicate glass patch pipettes (from 1.5 mm OD, thin-walled filamented, GC150-TF capillary glass, Harvard) were pulled using a DMZ pipette puller (Zeitz Instruments), and were back-filled using the internal pipette solution, being careful that no bubbles remain at the tip or in the body of the pipette. Patch pipettes typically had resistances of 2.3-3.5 MΩ. Once filled, the pipette tip and a proportion of the shaft (˜15 mm) were dipped into Sigmacote (Sigma). The recording pipette was then loaded into the AutoPatch™ Automated patch-clamping was initiated by the operator, but thereafter AutoPatch.exe continued the experiment providing that pre-set conditions and criteria were satisfied.
Whole cell patch-clamp recordings were made using the AutoPatch™ rig, which incorporated an EPC9 amplifier (HEKA, Germany) under control of Pulse software (v8.54, HEKA, Germany), a motion controller with 2 translators (Newport, UK), valve controller (VF1) and a c-level suction device all at room temperature (22-24° C.). This equipment was completely under the control of AutoPatch.exe and operator intervention was only made when there was a requirement to refill the drug reservoirs or to prevent the loss of a cell due to a technical error. Cells with an Rseries greater than 18 MΩ were discounted from the experiment.
Qualification stages prior to perfusion and drug application ensured that the observed current met the criteria for the experiment. Only those cells with an IK>500 pA were used for experiments. Cells were continuously perfused with external solution at a flow rate of 1.8-2 ml/minute. […] Online analysis of the hKv1.5 current during the application of compounds was performed by the AutoPatch™ software. Voltage-step protocols and analysis of data was performed as described for conventional electrophysiology.
Electrophysiology voltage-step protocols and analysis of data was performed as follows. Data was sampled at 5 kHz, and filtered with a −3 dB bandwidth of 2.5 kHz. Cells were held at a voltage of −80 mV. Currents were evoked to a voltage step for 1000 ms in duration at 0 mV every 5 s. Currents were analysed using Pulsefit software (v8.54, HEKA, Germany), with the total charge measured during the whole of the voltage step. All other plots were produced using Igor Pro (WaveMetrics).

hKv1.5, sequence (P22460 whole entry): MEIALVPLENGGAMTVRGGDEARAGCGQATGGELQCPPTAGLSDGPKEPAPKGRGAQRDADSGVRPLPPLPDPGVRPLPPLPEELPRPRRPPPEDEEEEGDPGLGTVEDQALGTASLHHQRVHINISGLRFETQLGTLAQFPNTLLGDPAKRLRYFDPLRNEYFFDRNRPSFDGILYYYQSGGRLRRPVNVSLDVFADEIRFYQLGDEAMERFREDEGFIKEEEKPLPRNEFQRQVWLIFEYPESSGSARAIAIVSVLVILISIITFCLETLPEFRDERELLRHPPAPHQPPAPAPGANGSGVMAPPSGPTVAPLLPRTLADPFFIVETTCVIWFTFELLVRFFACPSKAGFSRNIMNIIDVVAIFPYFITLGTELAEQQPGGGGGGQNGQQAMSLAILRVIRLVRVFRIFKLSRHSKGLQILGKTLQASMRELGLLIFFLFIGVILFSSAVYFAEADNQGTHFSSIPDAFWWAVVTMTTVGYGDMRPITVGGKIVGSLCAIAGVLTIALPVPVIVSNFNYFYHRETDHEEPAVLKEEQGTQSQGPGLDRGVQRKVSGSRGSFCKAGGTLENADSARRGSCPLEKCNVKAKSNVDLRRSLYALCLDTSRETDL
T1 sequence (P22001 whole entry): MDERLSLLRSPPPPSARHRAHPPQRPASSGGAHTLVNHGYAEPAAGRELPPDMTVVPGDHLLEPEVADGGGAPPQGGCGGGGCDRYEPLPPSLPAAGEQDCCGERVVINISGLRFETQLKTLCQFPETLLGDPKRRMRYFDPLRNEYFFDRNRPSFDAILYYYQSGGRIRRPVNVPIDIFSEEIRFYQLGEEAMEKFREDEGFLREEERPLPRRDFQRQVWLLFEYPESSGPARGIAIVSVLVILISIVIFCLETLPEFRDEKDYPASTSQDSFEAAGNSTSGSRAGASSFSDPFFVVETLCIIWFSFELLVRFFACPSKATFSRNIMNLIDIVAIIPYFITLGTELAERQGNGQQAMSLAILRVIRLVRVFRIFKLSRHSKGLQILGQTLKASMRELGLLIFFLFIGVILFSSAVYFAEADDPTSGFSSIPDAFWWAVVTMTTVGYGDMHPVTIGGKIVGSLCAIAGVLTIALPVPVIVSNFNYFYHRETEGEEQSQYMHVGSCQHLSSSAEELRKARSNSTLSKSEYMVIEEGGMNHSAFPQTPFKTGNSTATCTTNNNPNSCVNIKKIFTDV

In the case of `O=C(c1ccc(N(Cc2ccc(Cl)cc2)S(=O)(=O)c2ccccc2)cc1)N1CCN(c2ccccc2)CC1` [Example 1, N-(4-Chloro-benzyl)-N-[4-(4-phenyl-piperazine-1-carbonyl)-phenyl]-benzenesulfonamide], the inhibition at 1 µM in test [1] was found to be 91%; in test [2], 94%.

Turning to `Cn1cnc(S(=O)(=O)N(Cc2ccccc2)c2ccc(CN3CCN(c4ccccc4)CC3)cc2)c1` [Example 8, 1-Methyl-1H-imidazole-4-sulfonic acid benzyl-[4-(4-phenyl-piperazin-1-ylmethyl)-phenyl]-amide], the inhibition at 1 µM in test [1] was 90%; in test [2], 56.7%.

For `O=C(c1ccc(N(Cc2ccccc2)S(=O)(=O)c2ccccc2)cc1)N1CCN(c2ccccc2)CC1` [Example 9, N-Benzyl-N-[4-(4-phenyl-piperazine-1-carbonyl)-phenyl]-benzenesulfonamide], the inhibition at 1 µM was 99% in test [1] and 64.5% in test [2].

In the case of `O=C(c1ccc(N(Cc2ccccc2Cl)S(=O)(=O)c2ccccc2)cc1)N1CCN(c2ccccc2)CC1` [Example 10, N-(2-Chloro-benzyl)-N-[4-(4-phenyl-piperazine-1-carbonyl)-phenyl]-benzenesulfonamide], the values for the inhibition at 1 µM in test [1] and in test [2] were 86% and 47.9%, respectively.

Consider `O=C(c1ccc(N(Cc2cccc(Cl)c2)S(=O)(=O)c2ccccc2)cc1)N1CCN(c2ccccc2)CC1` [Example 11, N-(3-Chloro-benzyl)-N-[4-(4-phenyl-piperazine-1-carbonyl)-phenyl]-benzenesulfonamide], for which the inhibition at 1 µM in test [1] is 92%; in test [2] it was 73.6%.

Regarding `O=C(c1ccc(N(Cc2ccc(F)cc2)S(=O)(=O)c2ccccc2)cc1)N1CCN(c2ccccc2)CC1` [Example 12, N-(4-Fluoro-benzyl)-N-[4-(4-phenyl-piperazine-1-carbonyl)-phenyl]-benzenesulfonamide], the inhibition at 1 µM in test [1] came to 93%; in test [2] it was 56.3%.

For the compound `COc1ccc(S(=O)(=O)N(Cc2ccccc2)c2ccc(C(=O)N3CCN(c4ccccc4)CC3)cc2)cc1OC` [Example 14, N-Benzyl-3,4-dimethoxy-N-[4-(4-phenyl-piperazine-1-carbonyl)-phenyl]-benzenesulfonamide], the inhibition at 1 µM in test [1] worked out at 69%; in test [2], 61.3%.

Take `O=C(c1ccc(N(Cc2ccccc2)S(=O)(=O)c2ccc3c(c2)OCCO3)cc1)N1CCN(c2ccccc2)CC1` [Example 15, 2,3-Dihydro-benzo[1,4]dioxine-6-sulfonic acid benzyl-[4-(4-phenyl-piperazine-1-carbonyl)-phenyl]-amide]: the inhibition at 1 µM in test [1] stood at 66%; in test [2], 80.4%.

As for `Cc1ccc(S(=O)(=O)N(Cc2ccccc2)c2ccc(C(=O)N3CCN(c4ccccc4)CC3)cc2)cc1` [Example 16, N-Benzyl-4-methyl-N-[4-(4-phenyl-piperazine-1-carbonyl)-phenyl]-benzenesulfonamide], the values for the inhibition at 1 µM in test [1] and in test [2] were 77% and 48.1%, respectively.

Consider `O=C(c1ccc(N(Cc2ccccc2)S(=O)(=O)c2cccs2)cc1)N1CCN(c2ccccc2)CC1` [Example 17, Thiophene-2-sulfonic acid benzyl-[4-(4-phenyl-piperazine-1-carbonyl)-phenyl]-amide], for which the inhibition at 1 µM in test [1] worked out at 34%; in test [2], 47.3%.

Take `O=C(c1ccc(N(Cc2ccccc2)S(=O)(=O)c2ccsc2)cc1)N1CCN(c2ccccc2)CC1` [Example 18, Thiophene-3-sulfonic acid benzyl-[4-(4-phenyl-piperazine-1-carbonyl)-phenyl]-amide]: the results for the inhibition at 1 µM in test [1] and in test [2] were 80% and 82.9%, respectively.

In the case of `O=C(c1ccc(N(Cc2ccccc2)S(=O)(=O)c2ccc(F)cc2)cc1)N1CCN(c2ccccc2)CC1` [Example 19, N-Benzyl-4-fluoro-N-[4-(4-phenyl-piperazine-1-carbonyl)-phenyl]-benzenesulfonamide], the inhibition at 1 µM in test [1] was 83%; in test [2] it was 54.6%.

On to `O=C(c1ccc(N(Cc2ccccc2)S(=O)(=O)c2ccccc2F)cc1)N1CCN(c2ccccc2)CC1` [Example 20, N-Benzyl-2-fluoro-N-[4-(4-phenyl-piperazine-1-carbonyl)-phenyl]-benzenesulfonamide], for which the results for the inhibition at 1 µM in test [1] and in test [2] were 82% and 88.8%, respectively.

`O=C(c1ccc(N(Cc2ccccc2)S(=O)(=O)c2cccc(F)c2)cc1)N1CCN(c2ccccc2)CC1` [Example 21, N-Benzyl-3-fluoro-N-[4-(4-phenyl-piperazine-1-carbonyl)-phenyl]-benzenesulfonamide]: the inhibition at 1 µM in test [1] was determined as 70%; in test [2], 70.9%.

As for `Cn1cnc(S(=O)(=O)N(Cc2ccc(Cl)cc2)c2ccc(C(=O)N3CCC(F)(F)C3)cc2)c1` [Example 100, 1-Methyl-1H-imidazole-4-sulfonic acid (4-chloro-benzyl)-[4-(3,3-difluoro-pyrrolidine-1-carbonyl)-phenyl]-amide], the inhibition at 1 µM in test [1] came to 52%.
